Here are results for 27 compounds from US9884863B2, “STAT3 inhibitor” (Board of Regents, The University of Texas System, priority 2013, dated 2018).

Each structure is given as a SMILES string. pIC50: −log10 of the molar value. Like-named read-outs stand apart in the source and are kept apart here. Where only a bound is given, the exact number is not on record here.

The subject of one data set is MCF-7. Nature of the data set: MTS cell proliferation assay, MCF-7. Type of data set: cell-based, human. As for the experimental part: Cancer cells (breast cancer cell lines MCF-7, MDA-MB-361, SKBR3 and MDA-MB-231, pancreatic cancer cell lines AsPC-1. […] Proliferation was measured by treating cells with the 3-(4,5-dimethylthiazol-2-yl)-5-(3-carboxymethoxyphenyl)-2-(4-sulfophenyl)-2H-tetrazolium) (MTS) in a CellTiter 96t AQueous Non-Radioactive Cell Proliferation Assay kit from Promega, Madison, Wis., USA). Absorbance of all wells was determined by measuring OD at 550 nm after 1 hr incubation at 37° C. on a 96-well iMark™ Microplate Absorbance Reader (BioRad, Hercules, Calif.). Each individual compound was tested in quadruplicate wells for each concentration, and the results were reported as mean absorption±s.e.
In Vitro Determination of Effects of Synthesized Compounds on Cancer Cell Proliferation. Cancer cells (breast cancer cell lines MCF-7 and MDA-MB-231, pancreatic cancer cell lines AsPC-1 and Panc-1) were […], 0.01, 0.1, 1, 5, 10, […] Proliferation was measured by treating cells with the 3-(4,5-dimethylthiazol-2-yl)-5-(3-carboxymethoxyphenyl)-2-(4-sulfophenyl)-2H-tetrazolium) (MTS) in a CellTiter 96t Aqueous Non-Radioactive Cell Proliferation Assay kit (Promega, Madison, Wis., USA). Absorbance of all wells was determined by measuring OD at 550 nm after 1 h incubation at 37° C. on a 96-well iMark™ Microplate Absorbance Reader (BioRad, Hercules, Calif.). Each individual compound was tested in quadruplicate wells for each concentration.

Another data set deals with MDA-MB-231. As to the kind of experiment: MTS cell proliferation assay, MDA-MB-231. Type of data set: cell-based, human. The settings on record: Homo sapiens. As for the experimental part:
Cancer cells (breast cancer cell lines MCF-7, MDA-MB-361, SKBR3 and MDA-MB-231, pancreatic cancer cell lines AsPC-1. BxPC3 and Panc-1) were seeded in 96-well plates at a density of 1000-2000 cells/well and treated with DMSO, 0.01, 0.1, 1, 5, 10, and […] of STAT3 individual inhibitors for 72 hrs. Proliferation was measured by treating cells with the 3-(4,5-dimethylthiazol-2-yl)-5-(3-carboxymethoxyphenyl)-2-(4-sulfophenyl)-2H-tetrazolium) (MTS) in a CellTiter 96t AQueous Non-Radioactive Cell Proliferation Assay kit from Promega, Madison, Wis., USA). Absorbance of all wells was determined by measuring OD at 550 nm after 1 hr incubation at 37° C. on a 96-well iMark™ Microplate Absorbance Reader (BioRad, Hercules, Calif.).
In Vitro Determination of Effects of Synthesized Compounds on Cancer Cell Proliferation. Cancer cells (breast cancer cell lines MCF-7 and MDA-MB-231, pancreatic cancer cell lines AsPC-1 and Panc-1) were seeded in 96-well plates at a density of 2×10^3 cells/well and treated with DMSO, 0.01, 0.1, 1, 5, 10, and 100 μM of individual STAT3 inhibitors for 72 h. Proliferation was measured by treating cells with the 3-(4,5-dimethylthiazol-2-yl)-5-(3-carboxymethoxyphenyl)-2-(4-sulfophenyl)-2H-tetrazolium) (MTS) in a CellTiter 96t Aqueous Non-Radioactive Cell Proliferation Assay kit (Promega, Madison, Wis., USA). Absorbance of all wells was determined by measuring OD at 550 nm after 1 h incubation at 37° C. on a 96-well iMark™ Microplate Absorbance Reader (BioRad, Hercules, Calif.). Each individual compound was tested in quadruplicate wells for each concentration. […]

Where [1] appears, read: Homo sapiens, MCF7, 72 h; read-out: IC50 MCF-7 (Table 1).
Where [2] appears, read: MDA-MB-231, ER-negative breast cancer, 72 hrs, >10 = no effect, read-out: IC50 MDA-MB-231 (Table 1).
The mark [3] stands for this setting: Homo sapiens, MCF7, 72 h, read-out: IC50 MCF-7 (Table 1).
The mark [4] stands for this setting: MDA-MB-231, 72 h, read-out: IC50 MDA-MB-231 (Table 1).
Where [5] appears, read: MCF-7, 48 hr, μM concentrations.

`Cc1cccc(/C=C(\C#N)C(=O)Nc2ccc3c(c2)S(=O)(=O)C=C3)n1` [HJC-5-88, 2-Cyano-N-(1,1-dioxo-1H-1λ^6-benzo[b]thiophen-6-yl)-3-(6-methyl-pyridin-2-yl)acrylamide] came in with a melting point of 221 to 222 °C.
`N#C/C(=C\c1ccc(O)cc1)C(=O)Nc1ccc2c(c1)S(=O)(=O)C=C2` [RMF-1-11, 2-Cyano-N-(1,1-dioxo-1H-1λ^6-benzo[b]thiophen-6-yl)-3-(4-hydroxyphenyl)acrylamide]: the melting point lay within 306 to 307 °C.
Still for that read-out and setting: then `N#C/C(=C\c1c[nH]c2ncccc12)C(=O)Nc1ccc2c(c1)S(=O)(=O)C=C2` [RMF-1-17, 2-Cyano-N-(1,1-dioxo-1H-1λ^6-benzo[b]thiophen-6-yl)-3-(1H-pyrrolo[2,3-b]pyridin-3-yl)acrylamide], with 300 to 301 °C.
The compound `N#C/C(=C\c1cccnc1)C(=O)Nc1ccc2c(c1)S(=O)(=O)C=C2` [RMF-1-22, 2-Cyano-N-(1,1-dioxo-1H-1λ^6-benzo[b]thiophen-6-yl)-3-pyridin-3-yl-acrylamide] gave a melting point of 255 to 256 °C.
Same read-out and setting: then `N#C/C(=C\c1ccccc1O)C(=O)Nc1ccc2c(c1)S(=O)(=O)C=C2` [RMF-1-9, 2-Cyano-N-(1,1-dioxo-1H-1λ^6-benzo[b]thiophen-6-yl)-3-(2-hydroxyphenyl)acrylamide], with 284 to 285 °C; and `N#C/C(=C\c1ccc(Br)cc1)C(=O)Nc1ccc2c(c1)S(=O)(=O)C=C2` [RMF-1-8, 3-(4-Bromophenyl)-2-cyano-N-(1,1-dioxo-1H-1λ^6-benzo[b]thiophen-6-yl)acrylamide], with 289 to 290 °C.
Still for that read-out and setting: as for `N#C/C(=C\c1cccc(Cl)c1)C(=O)Nc1ccc2c(c1)S(=O)(=O)C=C2` [HJC-5-89, 3-(3-Chlorophenyl)-2-cyano-N-(1,1-dioxo-1H-1λ^6-benzo[b]thiophen-6-yl)acrylamide], the figure is 234 to 235 °C; as for `N#C/C(=C\C1CCCCC1)C(=O)Nc1ccc2c(c1)S(=O)(=O)C=C2` [RMF-1-20, 2-Cyano-3-cyclohexyl-N-(1,1-dioxo-1H-1λ^6-benzo[b]thiophen-6-yl)acrylamide], 180 to 181 °C; as for `N#C/C(=C\c1ccc([N+](=O)[O-])cc1)C(=O)Nc1ccc2c(c1)S(=O)(=O)C=C2` [RMF-1-37, 2-Cyano-N-(1,1-dioxo-1H-1λ^6-benzo[b]thiophen-6-yl)-3-(4-nitrophenyl)acrylamide], 272 to 273 °C.
Same read-out and setting: as for `C[C@H](NC(=O)c1cc(Cl)ccc1O)c1ccccc1` [Compound 9, (S)-5-Chloro-2-hydroxy-N-(1-phenylethyl)benzamide], the figure is 124 to 125 °C; as for `COc1ncccc1/C=C(\C#N)C(=O)Nc1ccc2c(c1)S(=O)(=O)C=C2` [RMF-1-27, 2-Cyano-N-(1,1-dioxo-1H-1λ^6-benzo[b]thiophen-6-yl)-3-(2-methoxy-pyridin-3-yl)acrylamide], 261 to 262 °C.
Turning to `NCCOc1ccc(Cl)cc1C(=O)Nc1ccc2c(c1)S(=O)(=O)C=C2` [HJC-3-93, 2-(2-Amino-ethoxy)-5-chloro-N-(1,1-dioxo-1H-1λ^6-benzo[b]thiophen-6-yl)benzamide], the pIC50 in the data set on MCF-7 (setting [1]) was 5.46; in the data set on MDA-MB-231 (setting [2]), 5.51.
Consider `N#CCC(=O)Nc1ccc2c(c1)S(=O)(=O)C=C2` [HJC-3-61, 2-Cyano-N-(1,1-dioxo-1H-1λ^6-benzo[b]thiophen-6-yl)acetamide], for which the negative-log IC50 (pIC50) with MCF-7 (setting [3]) and in the data set on MDA-MB-231 (setting [4]) was less than 5.00 each time.
Regarding `Nc1ccc(NC(=O)c2cc(Cl)ccc2OC2CCNCC2)c(Cl)c1` [HJC-4-23, N-(4-Amino-2-chlorophenyl)-5-chloro-2-(piperidin-4-yloxy)benzamide], the pIC50 with MCF-7 (setting [3]) and with MDA-MB-231 (setting [4]) was less than 5.00 in each case.
With `O=C(Nc1ccc2c(c1)S(=O)(=O)C=C2)c1cc(Cl)ccc1OCCN1CCCCC1` [HJC-3-79, 5-Chloro-N-(1,1-dioxo-1H-1λ^6-benzo[b]thiophen-6-yl)-2-(2-piperidin-1-yl-ethoxy)benzamide], the figures for the pIC50 with MCF-7 (setting [1]) and in the data set on MDA-MB-231 (setting [2]) were 5.43 and 5.60, respectively.
Turning to `O=C(Nc1ccc([N+](=O)[O-])cc1Cl)c1cc(Cl)ccc1OCCF` [HJC-3-98, 5-Chloro-N-(2-chloro-4-nitro-phenyl)-2-(2-fluoro-ethoxy)benzamide], the negative logarithm of the IC50 (pIC50) with MCF-7 (setting [3]) and in the data set with MDA-MB-231 (setting [4]) was less than 5.00 throughout.
As for `O=C(Nc1ccc2c(c1)S(=O)(=O)C=C2)c1ccnc(Br)c1` [HJC-3-95, 2-Bromo-N-(1,1-dioxo-1H-1λ^6-benzo[b]thiophen-6-yl)-isonicotinamide], the pIC50 in the data set on MCF-7 (setting [1]) is 5.44; with MDA-MB-231 (setting [2]), less than 5.00.
In the case of `O=C(Nc1ccc2c(c1)S(=O)(=O)C=C2)c1cc(Cl)ccc1OCCN1CCOCC1` [HJC-3-9, 5-Chloro-N-(1,1-dioxo-1H-1λ^6-benzo[b]thiophen-6-yl)-2-(2-morpholin-4-yl-ethoxy) benzamide], the pIC50 is 6.31 in the data set on MCF-7 (setting [3]) and 5.27 in the data set on MDA-MB-231 (setting [4]). Moreover, in the data set on MCF-7 (setting [5]), the “inhibition on breast cancer cell proliferation (FIG. 1)” value is reported as “significant inhibition”.
In the case of `CS(=O)(=O)NCCOc1ccc(Cl)cc1C(=O)Nc1ccc([N+](=O)[O-])cc1Cl` [HJC-4-26, 5-Chloro-N-(2-chloro-4-nitrophenyl)-2-(2-methanesulfonylaminoethoxy)benzamide], the pIC50 in the data set with MCF-7 (setting [1]) and in the data set with MDA-MB-231 (setting [2]) was less than 5.00 in each case.
As to `N#C/C(=C\c1ccc(O)c(O)c1)C(=O)Nc1ccc2c(c1)S(=O)(=O)C=C2` [HJC-4-11, 2-Cyano-3-(3,4-dihydroxy-phenyl)-N-(1,1-dioxo-1H-1λ^6-benzo[b]thiophen-6-yl)-acrylamide], the pIC50 was 5.37 in the data set with MCF-7 (setting [3]) and less than 5.00 in the data set on MDA-MB-231 (setting [4]).
Consider `O=C(Nc1ccc2c(c1)S(=O)(=O)C=C2)c1cc(Cl)ccc1OCCBr` [Compound 2], for which the negative-log IC50 (pIC50) in the data set with MCF-7 (Homo sapiens, MCF7, read-out: IC50 MCF-7 (Table 2)) was less than 5.00; with MDA-MB-231 (MDA-MB-231, read-out: IC50 MDA-MB-231 (Table 2)) it was less than 5.00.
On to `COc1ccc(C(=O)Nc2ccc3c(c2)S(=O)(=O)CC3OC)cc1` (stereo not drawn) [HJC-2-20, 4-Methoxy-N-(3-methoxy-1,1-dioxo-2,3-dihydro-1H-1λ^6-benzo[b]thiophen-6-yl)benzamide], for which the pIC50 in the data set with MCF-7 (setting [1]) and in the data set with MDA-MB-231 (setting [2]) was less than 5.00 throughout.
With `CN1CCN(CCOc2ccc(Cl)cc2C(=O)Nc2ccc3c(c2)S(=O)(=O)C=C3)CC1` [HJC-3-78, 5-Chloro-N-(1,1-dioxo-1H-1λ^6-benzo[b]thiophen-6-yl)-2-[2-(4-methylpiperazin-1-yl)-ethoxy]benzamide], the negative-log IC50 (pIC50) with MCF-7 (setting [1]) was 5.39; in the data set on MDA-MB-231 (setting [2]) it was 5.54.
The like results for `O=C(Nc1ccc2c(c1)S(=O)(=O)C=C2)c1ccncc1` [HJC-3-80, N-(1,1-Dioxo-1H-1λ^6-benzo[b]thiophen-6-yl)-isonicotinamide] were, in that order, less than 5.00 and less than 5.00.
The like results for `CC(=O)N1CCN(CCOc2ccc(Cl)cc2C(=O)Nc2ccc([N+](=O)[O-])cc2Cl)CC1` [HJC-4-27, 2-[2-(4-Acetylpiperazin-1-yl)-ethoxy]-5-chloro-N-(2-chloro-4-nitrophenyl)benzamide] were, in that order, less than 5.00 and less than 5.00.
Consider `O=C(Nc1ccc2c(c1)S(=O)(=O)C=C2)c1cnc2ccccc2c1` [HJC-3-91, Quinoline-3-carboxylic acid (1,1-dioxo-1H-1λ^6-benzo[b]thiophen-6-yl)amide], for which the values for the pIC50 with MCF-7 (setting [1]) and in the data set on MDA-MB-231 (setting [2]) were 5.53 and 5.21, respectively. Besides, the “inhibition on breast cancer cell proliferation (FIG. 1)” value with MCF-7 (setting [5]) was “significant inhibition”.
`O=C(Nc1ccc2c(c1)S(=O)(=O)C=C2)c1cc(Cl)ccc1OC1CCNCC1` [HJC-4-15, 5-Chloro-N-(1,1-dioxo-1H-1λ^6-benzo[b]thiophen-6-yl)-2-(piperidin-4-yloxy)benzamide]: the values for the pIC50 with MCF-7 (setting [1]) and in the data set with MDA-MB-231 (setting [2]) were 5.38 and 5.55, respectively.
